{"source": "patent US20090285773A1", "about": "“Hepatitis C Virus Inhibitors” (Bristol-Myers Squibb Company, priority 2008, published 2009)", "target": "HCV NS3/4A protease complex, BMS strain (genotype 1a) (UniProt P27958, species not given/STRAIN_BMS)", "sequence (P27958 1027-1657, stated change not applied, one chain of several)": "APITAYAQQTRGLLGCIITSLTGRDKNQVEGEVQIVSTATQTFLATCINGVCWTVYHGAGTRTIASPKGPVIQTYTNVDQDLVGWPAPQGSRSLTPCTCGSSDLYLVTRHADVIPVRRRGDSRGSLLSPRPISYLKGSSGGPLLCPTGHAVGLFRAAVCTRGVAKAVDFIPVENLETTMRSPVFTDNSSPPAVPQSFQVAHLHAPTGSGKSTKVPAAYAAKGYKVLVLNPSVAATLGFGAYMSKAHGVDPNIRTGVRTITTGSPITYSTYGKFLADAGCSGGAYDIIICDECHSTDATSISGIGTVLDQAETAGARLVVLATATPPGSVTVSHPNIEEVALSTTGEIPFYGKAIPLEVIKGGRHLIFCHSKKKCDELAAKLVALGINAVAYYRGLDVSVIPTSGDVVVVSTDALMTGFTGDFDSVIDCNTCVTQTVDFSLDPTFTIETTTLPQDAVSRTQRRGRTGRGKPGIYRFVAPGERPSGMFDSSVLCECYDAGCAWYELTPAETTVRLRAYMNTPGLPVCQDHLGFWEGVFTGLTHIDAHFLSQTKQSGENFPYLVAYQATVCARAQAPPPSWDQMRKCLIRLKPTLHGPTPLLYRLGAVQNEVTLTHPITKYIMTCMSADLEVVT", "experiment": "FRET peptide assay, HCV NS3/4A protease complex, BMS strain", "assay_type": "biochemical", "conditions": "read-out: IC50 against the NS3/4A BMS strain in the enzyme assay", "excerpt": "HCV NS3 protease complexes, derived from the BMS strain, H77 strain or J4L6S strain, were generated, as described below. These purified recombinant proteins were generated for use in a homogeneous assay (see below) to provide an indication of how effective compounds of the present disclosure would be in inhibiting HCV NS3 proteolytic activity.\nSerum from an HCV-infected patient was obtained from Dr. T. Wright, San Francisco Hospital. […]\nIn order to monitor HCV NS3/4A protease activity, an NS3/4A peptide substrate was used. […] The peptide also contains a fluorescence donor, EDANS, near one end of the peptide and an acceptor, DABCYL, near the other end. The fluorescence of the peptide is quenched by […] resonance energy transfer (RET) between the donor and the acceptor, but as the NS3 protease cleaves the peptide the products are released from RET quenching and the fluorescence of the donor becomes apparent.\nThe peptide substrate was incubated with one of the three recombinant NS3/4A protease complexes, in the absence or presence of a compound of the present disclosure. The inhibitory effects of a compound were determined by monitoring the formation of fluorescent reaction product in real time using a Cytofluor Series 4000. […]"}
{"smiles": "COc1ccc2c(O[C@@H]3C[C@H]4C(=O)N[C@]5(C(=O)NS(=O)(=O)C6CC6)C[C@H]5/C=C\\CCCCC[C@H](Nc5ccc(OC)nc5)C(=O)N4C3)nccc2c1", "note": "(single isomer, unassigned) [Compound 1]", "values": [{"measurement": "IC50", "result": 8.7, "unit": "nM"}]}
